Common to all, as to experiment: NCI anticancer screen, dose series, 48 h
Assay [1] relates to NCI-H522.
In assay [2] the test system is IGROV-1.
The subject of assay [3] is ACHN.
For assay [4], the system named is OVCAR-3.
The test system of assay [5] is U-251.
In assay [6] the test system is UACC-257.
Assay [7] relates to Malme-3M.
Assay [8] relates to MOLT-4.
The subject of assay [9] is RPMI-8226.
Assay [10] concerns HOP-62.
Assay [11] has as its system 786-0.
Assay [12] has as its system SF-268.
Assay [13] concerns HCT-116.
Assay [14] concerns COLO 205.
In assay [15] the test system is HOP-92.
Assay [16] relates to MDA-MB-435.
Assay [17] concerns MCF7.
The test system of assay [18] is NCI/ADR-RES.
Assay [19] relates to PC-3.

These results are taken from ChEMBL document CHEMBL1201862, “PubChem BioAssay data set” (2004).

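The compound was tested at five concentrations on cells cultured in 96-well plates, with a 48-hour exposure period. GI50 is the concentration that inhibits growth by half.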 The source made the active and inactive calls. No stated cut-off is given here; in the data, active = GI50 up to about 1.1 µM and inactive = higher.

On to `CCCCCCCCCCCCC(=O)CCCCC(=O)O`, for which the GI50 in [1] was 20.3 µM (inactive); in [2], 17.3 µM (inactive); in [3] it was 26.5 µM (inactive); in [4], 31.8 µM (inactive); in assay [5], 24.4 µM (inactive); in assay [6], 38 µM (inactive). The GI50 in assay [7] is 21.6 µM (inactive); in [8], 14.6 µM (inactive); in assay [9], 16.7 µM (inactive); in assay [10], 18.3 µM (inactive); in [11], 27.2 µM (inactive); in [12], 31.6 µM (inactive). The figures for the GI50 in assay [13], in assay [14] and in assay [15] were 20.6 µM (inactive), 16.7 µM (inactive) and 18.6 µM (inactive), respectively.

As for `C/C(CCN(C)C)=N\OC(=O)c1ccccc1`, the GI50 in assay [1], in assay [2], in assay [3], in assay [4], in [5] and in [6] was > 100 µM (inactive) in each case. Also, the GI50 in assay [7], in assay [8], in assay [9], in assay [10], in assay [11] and in [12] was > 100 µM (inactive) throughout. Besides, the GI50 in assay [13], in assay [14] and in [15] was > 100 µM (inactive) each time.

For `N#CCC(=O)N/N=C1/C(=O)N(c2cc(Cl)ccc2Cl)C(=O)C(=O)C1c1nc2ccccc2s1` (stereo unspecified), the GI50 in [1] was 61 µM (inactive); in [2] it was > 100 µM (inactive); in assay [3], > 100 µM (inactive); in assay [4], 54.6 µM (inactive); in assay [5] it was 80.9 µM (inactive); in [6], > 100 µM (inactive). Moreover, the GI50 is > 100 µM (inactive) in [7]; 45.9 µM (inactive) in [8]; 56.8 µM (inactive) in assay [9]; > 100 µM (inactive) in assay [10]; > 100 µM (inactive) in [11]; 88.3 µM (inactive) in assay [12]. Also, the GI50 in assay [13] was 84.7 µM (inactive); in assay [14] it was > 100 µM (inactive); in assay [15], 19.8 µM (inactive).

Consider `OC(Cn1cncn1)(Cn1cncn1)c1ccc(Cl)cc1Cl`, for which the GI50 in assay [1], in assay [2], in [3], in assay [4], in assay [5] and in assay [6] was > 100 µM (inactive) in each case. Further, the GI50 in assay [7], in [8], in [9], in assay [10], in assay [11] and in assay [12] was > 100 µM (inactive) each time. The GI50 in assay [13], in [14] and in assay [15] was > 100 µM (inactive) in each case.

On to `Cc1c2c(c(C)c3c4c(oc13)CCCC4)C=NCC2`, for which the GI50 in assay [1] is 16 µM (inactive); in [2] it was 13.6 µM (inactive); in [3], 15.8 µM (inactive); in assay [4], 14.9 µM (inactive); in assay [5], 13.1 µM (inactive); in [16] it was 14.4 µM (inactive). In addition, the GI50 in assay [17] was 16.1 µM (inactive); in assay [6], 14.7 µM (inactive); in [7] it was 16 µM (inactive); in assay [18] it was 15.4 µM (inactive); in assay [8], 7.89 µM (inactive); in [9] it was 0.818 µM (active). For the same compound, the GI50 is 32.2 µM (inactive) in [10]; 35.2 µM (inactive) in assay [11]; 20.2 µM (inactive) in assay [12]; 14.9 µM (inactive) in assay [13]; 19.5 µM (inactive) in assay [14]; 11.5 µM (inactive) in assay [15].

As to `c1ccc2c(c1)NC(C1OC3CCCN3C1C1Nc3ccccc3S1)S2` (stereo unspecified), the GI50 was 28.2 µM (inactive) in assay [1]; > 100 µM (inactive) in [2]; > 100 µM (inactive) in assay [3]; 46.5 µM (inactive) in assay [4]; 80.2 µM (inactive) in assay [5]; 75.2 µM (inactive) in assay [16]. The GI50 was 44.2 µM (inactive) in assay [17]; 48.3 µM (inactive) in [6]; > 100 µM (inactive) in assay [7]; 29.9 µM (inactive) in [8]; 44.1 µM (inactive) in [19]; 23 µM (inactive) in [9]. Further, the GI50 in assay [10] was 97.9 µM (inactive); in assay [11] it was > 100 µM (inactive); in [12], > 100 µM (inactive); in assay [13], 55.3 µM (inactive); in [14], 83.6 µM (inactive); in [15] it was > 100 µM (inactive).

Regarding `COc1cc2c3c(c1OC)Oc1ccc(cc1)CC1c4c(cc(OC)c(OC)c4Oc4ccc(cc4)CC3N(C)CC2)CCN1C` (stereo unspecified), the GI50 in assay [1] is 12.7 µM (inactive); in assay [2] it was 13.4 µM (inactive); in assay [3], 26.2 µM (inactive); in assay [4] it was 18.6 µM (inactive); in assay [5], 15.8 µM (inactive); in [6] it was 13.8 µM (inactive). The GI50 in assay [7] is 20.3 µM (inactive); in assay [8], 21.8 µM (inactive); in assay [9], 25.6 µM (inactive); in [10], 22.4 µM (inactive); in assay [11] it was 19.8 µM (inactive); in [12], 27 µM (inactive). The GI50 is 13.8 µM (inactive) in [13], 13.5 µM (inactive) in assay [14] and 32.6 µM (inactive) in assay [15].

For the compound `CC1=C(Cl)C=CP(=O)(OC(C)C)C1` (stereo unspecified), the GI50 in assay [1] is 27.8 µM (inactive); in assay [2], > 100 µM (inactive); in assay [3], > 100 µM (inactive); in assay [4], > 100 µM (inactive); in assay [5] it was > 100 µM (inactive); in assay [6] it was > 100 µM (inactive). Also, the GI50 was > 100 µM (inactive) in assay [7]; 40.7 µM (inactive) in [8]; 50.2 µM (inactive) in assay [9]; > 100 µM (inactive) in assay [10]; > 100 µM (inactive) in assay [11]; > 100 µM (inactive) in [12]. Besides, the GI50 in [13] was 37.2 µM (inactive); in assay [14] it was > 100 µM (inactive); in assay [15] it was > 100 µM (inactive).

As for `CN1CCCC2(CCCc3ccccc32)C1` (stereo unspecified), the GI50 in assay [1], in [2], in assay [3], in assay [4], in assay [5] and in assay [6] was > 100 µM (inactive) in each case. In addition, the GI50 in assay [7], in assay [8], in assay [9], in assay [10], in [11] and in assay [12] was > 100 µM (inactive) in each case. The GI50 in assay [13] was > 100 µM (inactive); in assay [14] it was > 100 µM (inactive); in assay [15] it was 69.5 µM (inactive).
